Measured values published in article PMC7835349 (Communications Biology, 2021).

Columns and labels:
Aqueous solubility = format: physicochemical; settings: aqueous buffers at physiological pH
[1] = Plasma protein binding (unbound fraction); format: in vitro ADME; settings: pre-clinical species and human, across pre-clinical species and man

CN(CCO)CCC(CSc1ccccc1)Nc1ccc(S(=O)(=O)NC(=O)c2ccc(N3CCC(C(O)c4ccccc4-c4ccc(Cl)cc4)CC3)cc2)cc1S(=O)(=O)C(F)(F)F (centres unmarked) [AZD4320]
solubility (Aqueous solubility): < 1 µg/mL | fraction unbound [1]: < 3e-05
